# Target: Serine/threonine-protein phosphatase 2A catalytic subunit alpha
# Assay: Inhibition of protein phosphatase 2A (PP2A) was determined by standard phosphorylase a inhibition assay
row,IC50 [µM],SMILES
1,100,"CO[C@@H]([C@H](O)CC(=O)[C@@H](C)[C@@H](O)CC[C@@H](C)[C@@H]1O[C@]2(CC[C@@H](C)[C@H](CC[C@H](C)C(C)=O)O2)CC[C@@H]1C)[C@H](OC(=O)C[C@@](C)(O)C(=O)O)C(C)C [(R)-2-Hydroxy-2-methyl-succinic acid 4-{(1R,2S,3R,6S,7S,10R)-10-[(2S,3S,6R,8S,9R)-3,9-dimethyl-8-((S)-3-methyl-4-oxo-pentyl)-1,7-dioxa-spiro[5.5]undec-2-yl]-3,7-dihydroxy-1-isopropyl-2-methoxy-6-methyl-5-oxo-undecyl} ester]"
2,4,"CO[C@@H]([C@H](O)CC(=O)[C@@H](C)[C@@H](O)CC[C@@H](C)[C@@H]1O[C@]2(CC[C@@H](C)[C@H](CC[C@H](C)C(C)=O)O2)CC[C@@H]1C)[C@H](OC(=O)C[C@@H](O)/C=C(\C)C(=O)O)C(C)C [(E)-(R)-4-Hydroxy-2-methyl-hex-2-enedioic acid 6-{(1R,2S,3R,6S,7S,10R)-10-[(2S,3S,6R,8S,9R)-3,9-dimethyl-8-((S)-3-methyl-4-oxo-pentyl)-1,7-dioxa-spiro[5.5]undec-2-yl]-3,7-dihydroxy-1-isopropyl-2-methoxy-6-methyl-5-oxo-undecyl} ester]"
3,29,"CO[C@@H]([C@H](O)CC(=O)[C@@H](C)[C@@H](O)CC[C@@H](C)[C@@H]1O[C@]2(CC[C@@H](C)[C@H](CC[C@H](C)C(C)=O)O2)CC[C@@H]1C)[C@H](OC(=O)C[C@](C)(O)C(=O)O)C(C)C [(S)-2-Hydroxy-2-methyl-succinic acid 4-{(1R,2S,3R,6S,7S,10R)-10-[(2S,3S,6R,8S,9R)-3,9-dimethyl-8-((S)-3-methyl-4-oxo-pentyl)-1,7-dioxa-spiro[5.5]undec-2-yl]-3,7-dihydroxy-1-isopropyl-2-methoxy-6-methyl-5-oxo-undecyl} ester]"
4,300,"CO[C@@H]([C@H](O)CC(=O)[C@@H](C)[C@@H](O)CC[C@@H](C)[C@@H]1O[C@]2(CC[C@@H](C)[C@H](CC[C@H](C)C(C)=O)O2)CC[C@@H]1C)[C@H](OC(=O)CCCP(=O)(O)O)C(C)C [4-Phosphono-butyric acid (1R,2S,3R,6S,7S,10R)-10-[(2S,3S,6R,8S,9R)-3,9-dimethyl-8-((S)-3-methyl-4-oxo-pentyl)-1,7-dioxa-spiro[5.5]undec-2-yl]-3,7-dihydroxy-1-isopropyl-2-methoxy-6-methyl-5-oxo-undecyl ester]"

# Reference: BindingDB's records for doi:10.1016/s0960-894x(03)00105-7 (University of California Irvine, 2003)
